Experiments:
[1] = molecular target: T1, MLKL (Homo sapiens, UniProt Q8NB16); assay: MLKL degradation assay in HepG2 cell line (western blot); assay type: cell-based; set-up: endogenous in cells; host or cells: HepG2 or HaCaT; details: cell line not given; for Degradation assay (Degradation %) 1 μM: compound 1 μM; for Degradation assay (Degradation %) 10 μM: compound 10 μM
T1 sequence (Q8NB16 1-471): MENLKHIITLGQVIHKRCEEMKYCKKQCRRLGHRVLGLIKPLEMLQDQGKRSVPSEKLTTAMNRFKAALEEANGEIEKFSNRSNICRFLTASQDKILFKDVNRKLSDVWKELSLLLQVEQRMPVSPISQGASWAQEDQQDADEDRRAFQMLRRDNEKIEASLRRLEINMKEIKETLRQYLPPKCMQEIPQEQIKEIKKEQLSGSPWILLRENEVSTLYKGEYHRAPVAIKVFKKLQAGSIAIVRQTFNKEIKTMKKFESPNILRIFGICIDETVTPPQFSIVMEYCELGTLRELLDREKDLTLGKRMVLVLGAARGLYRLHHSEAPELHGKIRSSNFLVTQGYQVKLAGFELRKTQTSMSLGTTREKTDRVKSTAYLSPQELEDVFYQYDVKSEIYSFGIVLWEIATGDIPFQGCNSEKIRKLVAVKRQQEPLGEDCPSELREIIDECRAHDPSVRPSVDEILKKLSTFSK
Protocol: MLKL degradation ability was evaluated in the following method.
1 mL of Human liver cancer cell line (HepG2 cell line) or human skin cell line (HaCaT cell line) was equally distributed into each well at 2.0×10^5 cells/mL in a 12-well cell culture plate. On the next day, the medium was replaced with a medium made so that the final concentration of test compound was 1 or 10 μM (1 mL/well), and incubated in 5% CO2, at 37° C. for 20-24 hours (Thermo scientific, Forma steri-cycle).
For protein preparation after incubation, cells were washed with 1×TBST, and 60 μL of RIPA lysis buffer containing Halt™ Protease and Phosphatase Inhibitor Cocktail was dispensed into each well. After scraping the cells with a scraper, the cells were recovered, and the pallet was homogenized and reacted on ice for 30 minutes. After the cells were centrifuged at 13,000 rpm, 10 minutes, 4° C., the supernatant was transferred to a new E-tube. For protein quantification, after dispensing sample and BCA (0-4 mg/ml) in a 96 well plate, 100 μL of BCA was dispensed and reacted in a 37° C. incubator for 30 minutes. After measuring the absorbance (SpectraMax, M5e, 562 nm), the amount of the sample was adjusted with the same concentration of protein and 4× Laemmli sample buffer, DW, and reacted at 100° C. for 5 minutes.
After assembling the MP TGX Precast Gel in the Mini-PROTEAN Tetra Cell, the same protein (10-15 μg) was added in an 8-10 μL volume per well, 1×Tris-Glycine Buffer was added, and loading was performed. After loading was completed, transfer was performed using Pierce G2 Fast Blotter and Pierce 1-Step Transfer Buffer. After completion of the transfer, 10 ml of SuperBlock™ Blocking Buffer was dispensed and reacted at room temperature for 10 minutes. 5% BSA containing the primary antibody was dispensed and reacted over night at 4° C. The next day, washing was performed three times with 1×TBST at room temperature for 10 minutes. 5% BSA containing the secondary antibody was dispensed and reacted at room temperature for 1 hour. Washing was performed three times with 1×TBST at room temperature for 10 minutes. The amount of protein expression was measured using chemiluminescence (LuminoGraph, ATTO).

[2] = molecular target: T1, MLKL; assay: Measurement of binding affinity with MLKL receptor (competitive binding assay, Kd); set-up: made in house; host or cells: HEK 293 cell line (T7 phage in E. coli BL21-derived host is also described)
Summary of the method: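 MLKL was produced in HEK 293 cells and tagged with DNA for detection. Liganded beads were blocked with excess biotin and washed to cut non-specific binding, then compounds (111× DMSO stocks, 0.9% DMSO in assay) competed for binding. Eluate kinase was measured by qPCR for Kd.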

[3] = system: FADD−/− Jurkat cells; assay: Necroptosis inhibition assay, TNF-α-induced necroptosis (CellTiter-Glo 2.0); assay type: cell-based, human; details: TNF-α 15 ng/mL; for Necroptosis inhibition assay (Rescue %) 1 μM: compound 1 μM; for Necroptosis inhibition assay (Rescue %) 10 μM: compound 10 μM
Summary of the method: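 Necroptosis was triggered by TNF-α at 15 ng/mL final following 30 minutes of compound exposure (0.1, 1 or 10 μM final). Incubation ran 20 to 24 hours at 37° C under 5% CO2; cell ATP was then quantified by luminescence.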

SMILES | Degradation assay (Degradation %) 1 μM [1] [%] | Degradation assay (Degradation %) 10 μM [1] [%] | Kd [2] [nM] | Necroptosis inhibition assay (Rescue %) 1 μM [3] [%] | Necroptosis inhibition assay (Rescue %) 10 μM [3] [%]
Nc1ncc(-c2cnn(C3CCN(CCOCCOCCNC(=O)C4CCN(c5ccc6c(c5)C(=O)N(C5CCC(=O)NC5=O)C6=O)CC4)CC3)c2)nc1C(=O)O[C@@H](C(=O)Nc1ccc(F)cc1)c1ccccc1 (stereo partly drawn) [TDH-111, (R)-2-((4-fluorophenyl)amino)-2-oxo-1-phenylethyl 3-amino-6-(1-(1-(2-(2-(2-(1-(2-(2,6-dioxopiperidin-3-yl)-1,3-dioxoisoindolin-5-yl)piperidine-4-carboxamido)ethoxy)ethoxy)ethyl)piperidin-4-yl)-1H-pyrazol-4-yl)pyrazine-2-carboxylate] | 4.54 | 28.85 | 5.3 | 45.17 | 78.08
Nc1ncc(-c2cnn(C3CCN(CCCCCCNC(=O)C4CN(c5cccc6c5C(=O)N(C5CCC(=O)NC5=O)C6=O)C4)CC3)c2)nc1C(=O)O[C@@H](C(=O)Nc1ccc(F)cc1)c1ccccc1 (stereo partly drawn) [TDH-113, (R)-2-((4-fluorophenyl)amino)-2-oxo-1-phenylethyl 3-amino-6-(1-(1-(6-(1-(2-(2,6-dioxopiperidin-3-yl)-1,3-dioxoisoindolin-4-yl)azetidine-3-carboxamido)hexyl)piperidin-4-yl)-1H-pyrazol-4-yl)pyrazine-2-carboxylate] | 24.54 | 19.24 | 2.3 | 24.96 | 5.16
Nc1ncc(-c2cnn(C3CCN(CCCCCCNC(=O)C4CN(c5ccc6c(c5)C(=O)N(C5CCC(=O)NC5=O)C6=O)C4)CC3)c2)nc1C(=O)O[C@@H](C(=O)Nc1ccc(F)cc1)c1ccccc1 (stereo partly drawn) [TDH-114, (R)-2-((4-fluorophenyl)amino)-2-oxo-1-phenylethyl 3-amino-6-(1-(1-(6-(1-(2-(2,6-dioxopiperidin-3-yl)-1,3-dioxoisoindolin-5-yl)azetidine-3-carboxamido)hexyl)piperidin-4-yl)-1H-pyrazol-4-yl)pyrazine-2-carboxylate] | 8.68 | 62.79 | 0.83 | 13.68 | 38.3
Nc1ncc(-c2cnn(C3CCN(CCOCCOCCNC(=O)C4CN(c5cccc6c5C(=O)N(C5CCC(=O)NC5=O)C6=O)C4)CC3)c2)nc1C(=O)O[C@@H](C(=O)Nc1ccc(F)cc1)c1ccccc1 (stereo partly drawn) [TDH-115, (R)-2-((4-fluorophenyl)amino)-2-oxo-1-phenylethyl 3-amino-6-(1-(1-(2-(2-(2-(1-(2-(2,6-dioxopiperidin-3-yl)-1,3-dioxoisoindolin-4-yl)azetidine-3-carboxamido)ethoxy)ethoxy)ethyl)piperidin-4-yl)-1H-pyrazol-4-yl)pyrazine-2-carboxylate] | 10.31 | 24.21 | 6.3 | 12.42 | 3.59
Nc1ncc(-c2cnn(C3CCN(C(=O)CCCCCNC(=O)CNc4cccc5c4C(=O)N(C4CCC(=O)NC4=O)C5=O)CC3)c2)nc1C(=O)O[C@@H](C(=O)Nc1ccc(F)cc1)c1ccccc1 (stereo partly drawn) [TDH-124, (R)-2-((4-fluorophenyl)amino)-2-oxo-1-phenylethyl 3-amino-6-(1-(1-(6-(2-((2-(2,6-dioxopiperidin-3-yl)-1,3-dioxoisoindolin-4-yl)amino)acetamido)hexanoyl)piperidin-4-yl)-1H-pyrazol-4-yl)pyrazine-2-carboxylate] | – | 8.02 | 12 | 21.88 | 27.22
Nc1ncc(-c2cnn(C3CCN(CCOCCNC(=O)CNc4ccc5c(c4)C(=O)N(C4CCC(=O)NC4=O)C5=O)CC3)c2)nc1C(=O)O[C@@H](C(=O)Nc1ccc(F)cc1)c1ccccc1 (stereo partly drawn) [TDH-125, (R)-2-((4-fluorophenyl)amino)-2-oxo-1-phenylethyl 3-amino-6-(1-(1-(2-(2-(2-((2-(2,6-dioxopiperidin-3-yl)-1,3-dioxoisoindolin-5-yl)amino)acetamido)ethoxy)ethyl)piperidin-4-yl)-1H-pyrazol-4-yl)pyrazine-2-carboxylate] | 30.1 | 69.02 | 3.2 | 21.27 | 54.55

Continued, in another order:

Degradation assay (Degradation %) 1 μM [1] [%] | Degradation assay (Degradation %) 10 μM [1] [%] | Kd [2] [nM] | SMILES | Necroptosis inhibition assay (Rescue %) 1 μM [3] [%] | Necroptosis inhibition assay (Rescue %) 10 μM [3] [%]
31.29 | 81.59 | 9.2 | Nc1ncc(-c2cnn(C3CCN(CCOCCNC(=O)C4CN(c5cccc6c5C(=O)N(C5CCC(=O)NC5=O)C6=O)C4)CC3)c2)nc1C(=O)O[C@@H](C(=O)Nc1ccc(F)cc1)c1ccccc1 (stereo partly drawn) [TDH-126, (R)-2-((4-fluorophenyl)amino)-2-oxo-1-phenylethyl 3-amino-6-(1-(1-(2-(2-(1-(2-(2,6-dioxopiperidin-3-yl)-1,3-dioxoisoindolin-4-yl)azetidine-3-carboxamido)ethoxy)ethyl)piperidin-4-yl)-1H-pyrazol-4-yl)pyrazine-2-carboxylate] | 19.35 | 58.35
4.37 | 43.64 | 5.6 | Nc1ncc(-c2cnn(C3CCN(CCOCCNC(=O)C4CN(c5ccc6c(c5)C(=O)N(C5CCC(=O)NC5=O)C6=O)C4)CC3)c2)nc1C(=O)O[C@@H](C(=O)Nc1ccc(F)cc1)c1ccccc1 (stereo partly drawn) [TDH-127, (R)-2-((4-fluorophenyl)amino)-2-oxo-1-phenylethyl 3-amino-6-(1-(1-(2-(2-(1-(2-(2,6-dioxopiperidin-3-yl)-1,3-dioxoisoindolin-5-yl)azetidine-3-carboxamido)ethoxy)ethyl)piperidin-4-yl)-1H-pyrazol-4-yl)pyrazine-2-carboxylate] | 34.64 | 49.65
11 | 68.52 | 14 | Nc1ncc(-c2cnn(C3CCN(CCOCCNC(=O)C4CCN(c5cccc6c5C(=O)N(C5CCC(=O)NC5=O)C6=O)CC4)CC3)c2)nc1C(=O)O[C@@H](C(=O)Nc1ccc(F)cc1)c1ccccc1 (stereo partly drawn) [TDH-128, (R)-2-((4-fluorophenyl)amino)-2-oxo-1-phenylethyl 3-amino-6-(1-(1-(2-(2-(1-(2-(2,6-dioxopiperidin-3-yl)-1,3-dioxoisoindolin-4-yl)piperidine-4-carboxamido)ethoxy)ethyl)piperidin-4-yl)-1H-pyrazol-4-yl)pyrazine-2-carboxylate] | 26.22 | 56.56
